Assay results from patent publication US12180207B2 (ARRAY BIOPHARMA INC., priority 2018, dated 2024).

Assays:
[1] = target: dephosphorylated FGFR1 (SEQ ID NO: 1, amino acids 458 to 765) (Homo sapiens (Human), UniProt P11362); assay: FGFR enzyme binding assay (HTRF tracer displacement), FGFR1; conditions: 5 nM dephosphorylated FGFR1, average of multiple determinations if made
Summary of the method: (§1)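 Compounds were tested for displacement of a tracer from human FGFR kinase in a time-resolved FRET binding format. After 60 minutes at 22° C, signal was read at two wavelengths and converted to percent of control, normalised between untreated wells and 1 μM reference inhibitor.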

[2] = target: FGFR3 (SEQ ID NO: 5, amino acids 449-759) (Homo sapiens (Human), UniProt P22607); assay: LC/MS FGFR3 kobs assay (covalent protein modification); type: binding; conditions: 500 nM FGFR3, 3 μM compound
FGFR3 (SEQ ID NO: 5, amino acids 449-759), sequence (P22607 449-759): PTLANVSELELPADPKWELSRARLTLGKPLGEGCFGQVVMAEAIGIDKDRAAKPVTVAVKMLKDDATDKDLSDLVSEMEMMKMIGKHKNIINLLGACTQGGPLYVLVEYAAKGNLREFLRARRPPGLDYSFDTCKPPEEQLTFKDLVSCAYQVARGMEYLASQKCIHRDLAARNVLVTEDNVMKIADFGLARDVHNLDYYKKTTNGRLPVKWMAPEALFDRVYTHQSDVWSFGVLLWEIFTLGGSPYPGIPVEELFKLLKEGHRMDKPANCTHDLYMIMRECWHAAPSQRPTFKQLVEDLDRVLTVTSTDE
Summary of the method: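 The observed rate constant kobs comes from an exponential decay fit of percent unmodified kinase over time. Covalent modification was quantified by Q-TOF LC/MS of formic acid-quenched samples, normalized against DMSO controls.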

[3] = target: phosphorylated FGFR3 (SEQ ID NO: 5, amino acids 449 to 759) (Homo sapiens (Human), UniProt P22607); assay: FGFR enzyme binding assay (HTRF tracer displacement), FGFR3; conditions: 5 nM phosphorylated FGFR3, average of multiple determinations if made
phosphorylated FGFR3 (SEQ ID NO: 5, amino acids 449 to 759), sequence (P22607 449-759): as above
Summary of the method: as §1

[4] = target: FGFR1 (SEQ ID NO: 1, amino acids 458-765) (Homo sapiens (Human), UniProt P11362); assay: LC/MS FGFR1 kobs assay (covalent protein modification); type: binding; conditions: 500 nM FGFR1, 3 μM compound
FGFR1 (SEQ ID NO: 1, amino acids 458-765), sequence (P11362 458-765): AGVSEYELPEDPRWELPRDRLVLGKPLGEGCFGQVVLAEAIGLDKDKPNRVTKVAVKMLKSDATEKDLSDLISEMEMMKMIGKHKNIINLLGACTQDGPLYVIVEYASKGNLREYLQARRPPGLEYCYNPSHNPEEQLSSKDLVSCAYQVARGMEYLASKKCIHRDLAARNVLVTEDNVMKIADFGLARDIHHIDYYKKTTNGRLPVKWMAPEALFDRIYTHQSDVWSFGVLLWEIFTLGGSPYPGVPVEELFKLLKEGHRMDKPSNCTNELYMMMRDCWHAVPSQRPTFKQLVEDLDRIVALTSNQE
Summary of the method: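 Covalent labeling of FGFR1 kinase domain (aa 458-765) tracked over time by intact-protein LC/MS after formic acid quench. kobs derived by fitting DMSO-normalized percent unmodified FGFR1 to an exponential decay model.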

dephosphorylated FGFR1 (SEQ ID NO: 1, amino acids 458 to 765), sequence (P11362 458-765): as above

IC50 [1] [µM]	FGFR3 Enz kobs [2] [min⁻¹]	IC50 [3] [µM]	FGFR1 Enz kobs [4] [min⁻¹]	Compound
0.157	0.00902	0.018	0.00093	C=CC(=O)N1CC2(CCN(C(=O)N3CCC(n4cc(-c5cc(OC)c6c(C#N)cnn6c5)cn4)CC3)CC2)C1 [Example 6, 6-(1-(1-(2-acryloyl-2,7-diazaspiro[3.5]nonane-7-carbonyl)piperidin-4-yl)-1H-pyrazol-4-yl)-4-methoxypyrazolo[1,5-a]pyridine-3-carbonitrile]
0.052	0.00305	0.009	0.00042	C=CC(=O)N1C[C@H]2CN(C(=O)N3CCC(n4cc(-c5cc(OC)c6c(C#N)cnn6c5)cn4)CC3)C[C@H]21 [Example 7, 6-(1-(1-((1S,5S)-6-acryloyl-3,6-diazabicyclo[3.2.0]heptane-3-carbonyl)piperidin-4-yl)-1H-pyrazol-4-yl)-4-methoxypyrazolo[1,5-a]pyridine-3-carbonitrile]
0.073	0.01122	0.008	0.00124	C=CC(=O)N1CC2(CCN(C(=O)N3CCC(n4cc(-c5cc(OC)c6c(C#N)cnn6c5)cn4)CC3)C2)C1 [Example 8, 6-(1-(1-(2-acryloyl-2,6-diazaspiro[3.4]octane-6-carbonyl)piperidin-4-yl)-1H-pyrazol-4-yl)-4-methoxypyrazolo[1,5-a]pyridine-3-carbonitrile]
0.056	0.02298	0.005	0.0059	C=CC(=O)Nc1ccc(CN2CCC(n3cc(-c4cc(OC)c5c(C#N)cnn5c4)cn3)CC2)cc1 [Example 9, N-(4-((4-(4-(3-cyano-4-methoxypyrazolo[1,5-a]pyridin-6-yl)-1H-pyrazol-1-yl)piperidin-1-yl)methyl)phenyl)acrylamide]
0.056	0.01566	0.004	0.0034	C=CC(=O)N(C)c1ccc(CN2CCC(n3cc(-c4cc(OC)c5c(C#N)cnn5c4)cn3)CC2)cc1 [Example 10, N-(4-((4-(4-(3-cyano-4-methoxypyrazolo[1,5-a]pyridin-6-yl)-1H-pyrazol-1-yl)piperidin-1-yl)methyl)phenyl)-N-methylacrylamide]
0.21	0.00206	0.025	0.0002	C=CC(=O)N1CCC(n2cc(-c3cc(OC)c4c(C#N)cnn4c3)cn2)CC1 [Example 11, 6-(1-(1-acryloylpiperidin-4-yl)-1H-pyrazol-4-yl)-4-methoxypyrazolo[1,5-a]pyridine-3-carbonitrile]
0.245	0.00418	0.039	0.00056	C=CC(=O)N1CCC(F)(C(=O)N2CCC(n3cc(-c4cc(OC)c5c(C#N)cnn5c4)cn3)CC2)CC1 [Example 13, 6-(1-(1-(1-acryloyl-4-fluoropiperidine-4-carbonyl)piperidin-4-yl)-1H-pyrazol-4-yl)-4-methoxypyrazolo[1,5-a]pyridine-3-carbonitrile]
0.218	0.01995	0.019	0.00167	C=CC(=O)N1CC(C(=O)N2CCC(n3cnc(-c4cc(OC)c5c(C#N)cnn5c4)c3)CC2)C1 [Example 98, 6-(1-(1-(1-acryloylazetidine-3-carbonyl)piperidin-4-yl)-1H-imidazol-4-yl)-4-methoxypyrazolo[1,5-a]pyridine-3-carbonitrile]
0.042	0.01185	0.003	0.00223	C=CC(=O)N1CC(C(=O)N2CCC(c3ccc(-c4cc(OC)c5c(C#N)cnn5c4)cc3)CC2)C1 [Example 101, 6-(4-(1-(1-acryloylazetidine-3-carbonyl)piperidin-4-yl)phenyl)-4-methoxypyrazolo[1,5-a]pyridine-3-carbonitrile]
0.221	0.01169	0.022	0.00126	C=CC(=O)N1CC(C)(C(=O)N2CCC(n3cc(-c4cc(OC)c5c(Cl)cnn5c4)cn3)CC2)C1 [Example 123, 1-(3-(4-(4-(3-chloro-4-methoxypyrazolo[1,5-a]pyridin-6-yl)-1H-pyrazol-1-yl)piperidine-1-carbonyl)-3-methylazetidin-1-yl)prop-2-en-1-one]
0.119	0.02484	0.009	0.00241	C=CC(=O)N1CC(OC)(C(=O)N2CCC(n3cc(-c4cc(OC)c5c(Cl)cnn5c4)cn3)CC2)C1 [Example 124, 1-(3-(4-(4-(3-chloro-4-methoxypyrazolo[1,5-a]pyridin-6-yl)-1H-pyrazol-1-yl)piperidine-1-carbonyl)-3-methoxyazetidin-1-yl)prop-2-en-1-one]
0.147	0.01992	0.011	0.0028	C=CC(=O)N1CC(C(=O)N2CCC(n3cc(-c4cc(OCC)c5c(C#N)cnn5c4)cn3)CC2)C1 [Example 126, 6-(1-(1-(1-acryloylazetidine-3-carbonyl)piperidin-4-yl)-1H-pyrazol-4-yl)-4-ethoxypyrazolo[1,5-a]pyridine-3-carbonitrile]
0.059	0.01654	0.01	0.00133	C=CC(=O)N1CC(C(=O)N2CCC(n3cc(-c4cc(OC(C)C)c5c(C#N)cnn5c4)cn3)CC2)C1 [Example 127, 6-(1-(1-(1-acryloylazetidine-3-carbonyl)piperidin-4-yl)-1H-pyrazol-4-yl)-4-isopropoxypyrazolo[1,5-a]pyridine-3-carbonitrile]
0.271	0.01646	0.034	0.00148	C=CC(=O)N1CC(C(=O)N2CCC(n3cc(-c4cc(C(C)C)c5c(C#N)cnn5c4)cn3)CC2)C1 [Example 129, 6-(1-(1-(1-acryloylazetidine-3-carbonyl)piperidin-4-yl)-1H-pyrazol-4-yl)-4-isopropylpyrazolo[1,5-a]pyridine-3-carbonitrile]
0.007	0.01127	0.003	0.00132	C=CC(=O)N1CC(C(=O)N2CCC(n3cc(-c4cc(-c5ccc(NC(=O)C6CC6)cc5F)c5c(C#N)cnn5c4)cn3)CC2)C1 [Example 130, N-(4-(6-(1-(1-(1-acryloylazetidine-3-carbonyl)piperidin-4-yl)-1H-pyrazol-4-yl)-3-cyanopyrazolo[1,5-a]pyridin-4-yl)-3-fluorophenyl)cyclopropane-carboxamide]
0.007	0.01762	0.001	0.00146	C=CC(=O)N1CC(C(=O)N2CCC(n3cc(-c4cc(-c5ccccc5F)c5c(C#N)cnn5c4)cn3)CC2)C1 [Example 131, 6-(1-(1-(1-acryloylazetidine-3-carbonyl)piperidin-4-yl)-1H-pyrazol-4-yl)-4-(2-fluorophenyl)pyrazolo[1,5-a]pyridine-3-carbonitrile]
0.071	0.013	0.007	0.00146	C=CC(=O)N1CC(CN2CCC(n3cc(-c4cc(OC)c5c(C#N)cnn5c4)cn3)CC2)C1 [Example 132, 6-(1-(1-((1-acryloylazetidin-3-yl)methyl)piperidin-4-yl)-1H-pyrazol-4-yl)-4-methoxypyrazolo[1,5-a]pyridine-3-carbonitrile]
0.033	0.02052	0.002	0.00278	COc1cc(-c2cnn(C3CCN(C(=O)C4CN(C(=O)/C=C/CN(C)C)C4)CC3)c2)cn2ncc(C#N)c12 [Example 143, (E)-6-(1-(1-(1-(4-(dimethylamino)but-2-enoyl)azetidine-3-carbonyl)piperidin-4-yl)-1H-pyrazol-4-yl)-4-methoxypyrazolo [1,5-a]pyridine-3-carbonitrile]

Compound	IC50 [1] [µM]	FGFR3 Enz kobs [2] [min⁻¹]	IC50 [3] [µM]	FGFR1 Enz kobs [4] [min⁻¹]
C=CC(=O)N1CC(C(=O)N2CCC(n3cc(-c4cc(OC5CCC5)c5c(C#N)cnn5c4)cn3)CC2)C1 [Example 125, 6-(1-(1-(1-acryloylazetidine-3-carbonyl)piperidin-4-yl)-1H-pyrazol-4-yl)-4-cyclobutoxypyrazolo[1,5-a]pyridine-3-carbonitrile]	0.013	0.01842	0.002	0.00246
C=CC(=O)N1CC(C(=O)N2CCC(n3cc(-c4cc(OCC(C)C)c5c(C#N)cnn5c4)cn3)CC2)C1 [Example 128, 6-(1-(1-(1-acryloylazetidine-3-carbonyl)piperidin-4-yl)-1H-pyrazol-4-yl)-4-isobutoxypyrazolo[1,5-a]pyridine-3-carbonitrile]	0.038	0.01702	0.006	0.00134
